Experiment: mn = molality of the nth substance listed, in mol/kg
Details: 100 kPa, Liquid; for speed of sound: Frequency=3 MHz, Sing-around technique in a fixed-path interferometer; for mass density: Vibrating tube method

CCCCCCCCCCCC[N+](C)(C)C.[Br-] [dodecyltrimethylammonium bromide] + O
Details	mass density [kg/m3]	speed of sound [m/s]
293.15 K, m1 = 0.003	998.31	1483.3
293.15 K, m1 = 0.006	998.37	1484.2
293.15 K, m1 = 0.009	998.43	1484.9
293.15 K, m1 = 0.012	998.49	1485.6
293.15 K, m1 = 0.015	998.54	1486.3
293.15 K, m1 = 0.018	998.6	1486.7
293.15 K, m1 = 0.021	998.65	1486.8
293.15 K, m1 = 0.024	998.7	1486.9
293.15 K, m1 = 0.027	998.75	1487
293.15 K, m1 = 0.03	998.81	1487
293.15 K, m1 = 0.033	998.87	1487.1
293.15 K, m1 = 0.036	998.92	1487.1
293.15 K, m1 = 0.039	998.95	1487.1
293.15 K, m1 = 0.042	999	1487.1
293.15 K, m1 = 0.045	999.05	1487
298.15 K, m1 = 0.003	997.2	1497.2
298.15 K, m1 = 0.006	997.26	1497.9
298.15 K, m1 = 0.009	997.32	1498.6
298.15 K, m1 = 0.012	997.37	1499.2
298.15 K, m1 = 0.015	997.43	1499.9
298.15 K, m1 = 0.018	997.49	1500.2
298.15 K, m1 = 0.021	997.53	1500.3
298.15 K, m1 = 0.024	997.58	1500.3
298.15 K, m1 = 0.027	997.63	1500.4
298.15 K, m1 = 0.03	997.67	1500.4
298.15 K, m1 = 0.033	997.71	1500.5
298.15 K, m1 = 0.036	997.75	1500.4
298.15 K, m1 = 0.039	997.79	1500.5
298.15 K, m1 = 0.042	997.82	1500.4
298.15 K, m1 = 0.045	997.85	1500.5
303.15 K, m1 = 0.003	995.71	1509.7
303.15 K, m1 = 0.006	995.76	1510.3
303.15 K, m1 = 0.009	995.82	1511
303.15 K, m1 = 0.012	995.87	1511.6
303.15 K, m1 = 0.015	995.92	1512
303.15 K, m1 = 0.018	995.97	1512.2
303.15 K, m1 = 0.021	996.02	1512.2
303.15 K, m1 = 0.024	996.07	1512.2
303.15 K, m1 = 0.027	996.11	1512.2
303.15 K, m1 = 0.03	996.16	1512.2
303.15 K, m1 = 0.033	996.21	1512.2
303.15 K, m1 = 0.036	996.24	1512.2
303.15 K, m1 = 0.039	996.29	1512.3
303.15 K, m1 = 0.042	996.32	1512.2
303.15 K, m1 = 0.045	996.36	1512.3
308.15 K, m1 = 0.003	994.26	1520.3
308.15 K, m1 = 0.006	994.31	1520.9
308.15 K, m1 = 0.009	994.36	1521.5
308.15 K, m1 = 0.012	994.41	1522
308.15 K, m1 = 0.015	994.46	1522.6
308.15 K, m1 = 0.018	994.51	1522.6
308.15 K, m1 = 0.021	994.55	1522.6
308.15 K, m1 = 0.024	994.59	1522.6
308.15 K, m1 = 0.027	994.63	1522.6
308.15 K, m1 = 0.03	994.67	1522.5
308.15 K, m1 = 0.033	994.72	1522.5
308.15 K, m1 = 0.036	994.77	1522.5
308.15 K, m1 = 0.039	994.79	1522.5
308.15 K, m1 = 0.042	994.82	1522.6
308.15 K, m1 = 0.045	994.84	1522.5
313.15 K, m1 = 0.003	992.29	1529.4
313.15 K, m1 = 0.006	992.33	1529.9
313.15 K, m1 = 0.009	992.38	1530.4
313.15 K, m1 = 0.012	992.42	1530.9
313.15 K, m1 = 0.015	992.47	1531.4
313.15 K, m1 = 0.018	992.51	1531.5
313.15 K, m1 = 0.021	992.55	1531.4
313.15 K, m1 = 0.024	992.59	1531.4
313.15 K, m1 = 0.027	992.63	1531.3
313.15 K, m1 = 0.03	992.67	1531.3
313.15 K, m1 = 0.033	992.71	1531.2
313.15 K, m1 = 0.036	992.77	1531.3
313.15 K, m1 = 0.039	992.81	1531.3
313.15 K, m1 = 0.042	992.87	1531.3
313.15 K, m1 = 0.045	992.9	1531.2
318.15 K, m1 = 0.003	990.28	1536.3
318.15 K, m1 = 0.006	990.33	1536.7
318.15 K, m1 = 0.009	990.37	1537.2
318.15 K, m1 = 0.012	990.39	1537.8
318.15 K, m1 = 0.015	990.42	1538.2
318.15 K, m1 = 0.018	990.45	1538.4
318.15 K, m1 = 0.021	990.48	1538.6
318.15 K, m1 = 0.024	990.52	1538.7
318.15 K, m1 = 0.027	990.55	1538.7
318.15 K, m1 = 0.03	990.57	1538.7
318.15 K, m1 = 0.033	990.61	1538.9
318.15 K, m1 = 0.036	990.64	1538.9
318.15 K, m1 = 0.039	990.67	1539
318.15 K, m1 = 0.042	990.7	1539.1
318.15 K, m1 = 0.045	990.72	1539.1

CCCCC[N+](CCCCC)(CCCCC)CCCCC.[Br-] [tetrapentylammonium bromide] + O
m1 = 0.01
Details	mass density [kg/m3]	speed of sound [m/s]
293.15 K	998.34	1485.3
298.15 K	997	1499.1
303.15 K	995.7	1511.2
308.15 K	994.05	1521.6
313.15 K	991.93	1530.5
318.15 K	990.16	1537.9

CCCC[N+](CCCC)(CCCC)CCCC.[Br-] [tetrabutylammonium bromide] + O
m1 = 0.01
Details	mass density [kg/m3]	speed of sound [m/s]
293.15 K	998.57	1485.3
298.15 K	997.35	1499.2
303.15 K	995.88	1511.4
308.15 K	994.29	1521.9
313.15 K	992.33	1531
318.15 K	990.43	1538.6
